Measured values from publication PMC9086992 (Chemmedchem, 2022).

Experiments:
Type in all cases: cell-based
[1] = test system: CCRF-CEM leukemia cell line; assay: cells; conditions: Homo sapiens, 48 h, read-out: % inhibition CCRF-CEM
[2] = test system: RPMI-8226 leukemia cell line; assay: cells; conditions: Homo sapiens, RPMI-8226, 48 h, read-out: % inhibition RPMI-8226
HL-60 leukemia cell line = assay: cells; conditions: Homo sapiens, HL-60, 48 h, read-out: % inhibition HL-60
[3] = test system: MOLT-4 leukemia cell line; assay: cells; conditions: Homo sapiens, MOLT-4, 48 h, read-out: % inhibition MOLT-4
K562 leukemia cell line = conditions: 10 μM compound, 48 h treatment, CellTiter-Blue

C[C@H]1[C@H](OC(=O)CCC(=O)O)O[C@@H]2O[C@@]3(C)CC[C@H]4[C@H](C)CC[C@@H]1[C@@]24OO3 [artesunic acid, Artesunic acid]
inhibition at 10 µM [1]: 9.4 ± 4%
inhibition at 10 µM [2]: 27.3 ± 6.1%
inhibition at 10 µM (HL-60 leukemia cell line): 44.3 ± 7.4%
inhibition at 10 µM [3]: 9.9 ± 4.8%

COc1cccc2c1C(=O)c1c(O)c3c(c(O)c1C2=O)C[C@@](O)(C(=O)CO)C[C@@H]3O[C@H]1C[C@H](N)[C@H](O)[C@H](C)O1 [doxorubicin]
inhibition at 10 µM [1]: 92.3 ± 1.3%
inhibition at 10 µM [2]: 84.1 ± 3.2%
% inhibition K562 (K562 leukemia cell line): 78.2±4.1%
inhibition at 10 µM (HL-60 leukemia cell line): 91.5 ± 0.6%
inhibition at 10 µM [3]: 93.2 ± 2.6%
